According to US8377943B2, “2,4-diaminopyrimidine derivates as PTK2-inhibitors for the treatment of abnormal cell growth” (Boehringer Ingelheim International GmbH, priority 2008, dated 2013):

Key:
[1] = target: T1, PTK2-phosphorylation at tyrosine 397 (pY397) (Homo sapiens, UniProt Q05397); experiment: Phospho-PTK2 (pY397) Assay in PC-3 cells; type: cell-based; conditions: PC-3 prostate carcinoma cells, 2 h incubation; read-out: PC3pPTK2 Y397 EC50
T1 construct: endogenous in cells; host or cells: PC-3 (ATCC CRL-1435)
T1 sequence (Q05397 whole entry): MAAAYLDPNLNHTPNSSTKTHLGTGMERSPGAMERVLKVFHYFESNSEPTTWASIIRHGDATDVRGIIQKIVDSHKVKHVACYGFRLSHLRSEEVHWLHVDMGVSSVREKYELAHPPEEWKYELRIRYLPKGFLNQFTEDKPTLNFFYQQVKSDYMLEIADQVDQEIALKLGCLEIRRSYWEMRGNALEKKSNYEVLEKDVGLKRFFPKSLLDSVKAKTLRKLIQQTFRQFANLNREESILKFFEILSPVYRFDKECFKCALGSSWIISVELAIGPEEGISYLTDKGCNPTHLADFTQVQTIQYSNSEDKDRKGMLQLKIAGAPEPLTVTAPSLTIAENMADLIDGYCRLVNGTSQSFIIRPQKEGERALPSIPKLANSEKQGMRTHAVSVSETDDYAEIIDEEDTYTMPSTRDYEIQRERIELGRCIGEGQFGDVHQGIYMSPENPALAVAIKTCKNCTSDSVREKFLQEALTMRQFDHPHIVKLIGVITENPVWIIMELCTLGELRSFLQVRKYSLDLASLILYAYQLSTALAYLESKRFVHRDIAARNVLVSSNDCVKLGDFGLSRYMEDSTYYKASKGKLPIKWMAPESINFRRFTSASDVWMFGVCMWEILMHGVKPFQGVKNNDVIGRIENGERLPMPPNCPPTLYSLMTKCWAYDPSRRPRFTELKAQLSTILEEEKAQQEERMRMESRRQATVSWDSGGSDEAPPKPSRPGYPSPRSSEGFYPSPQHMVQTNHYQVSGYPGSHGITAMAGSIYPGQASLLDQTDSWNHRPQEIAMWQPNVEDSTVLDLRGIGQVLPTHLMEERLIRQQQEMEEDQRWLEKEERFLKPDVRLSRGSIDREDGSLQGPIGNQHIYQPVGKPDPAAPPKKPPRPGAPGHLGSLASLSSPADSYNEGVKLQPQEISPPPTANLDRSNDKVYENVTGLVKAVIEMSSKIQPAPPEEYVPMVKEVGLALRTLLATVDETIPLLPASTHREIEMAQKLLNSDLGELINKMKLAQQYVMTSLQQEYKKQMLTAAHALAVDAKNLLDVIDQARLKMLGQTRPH
Description: This cellular test is used to determine the influence of PTK2-inhibitors on the state of the PTK2-phosphorylation at tyrosine 397 (pY397).
PC-3 cells (prostate carcinoma, ATCC CRL-1435) are grown in cell culture flasks (175 cm^2) with F12 Kaighn's Medium (Gibco, No.: 21127) with the addition of 10% foetal calf serum (Invitrogen, No.: 16000-044). The cultures are incubated in the incubator at 37° C. and 5% CO2 and run twice a week.
For the test, 2×10^4 cells pro well/[…] are plated out in 96-well microtitre plates (Costar, No.: 3598) and incubated overnight in the incubator at 37° C. and 5% CO2. The test compounds (10 μL from serial dilution) are added the next day. The concentration of the test compounds usually covers a range of 50 μM and 0.8 nM. The test compounds (stock solution: 10 mM in 100% DMSO) are diluted in medium/medium 10% DMSO such that the final concentration is 1% DMSO. The cells are then incubated in the incubator at 37° C. and 5% CO2 for 2 h. Then the culture supernatant is removed and the cells are fixed with 150 μL 4% formaldehyde in D-PBS for 20 min at RT. The cell lawn is washed five times with 200 μL 0.1% Triton X-100 in D-PBS for 5 min in each case and then incubated for 90 min with blocking buffer (5% skimmed milk powder (Maresi Fixmilch) in TBST (25 mM Tris/HCl, pH 8.0, 150 mM NaCl, 0.05% Tween 20). The blocking buffer is replaced by 50 μL of the first antibody anti-phospho PTK2 [pY397] rabbit monoclonal (Invitrogen/Biosource, No.: 44-625G), which is diluted 1:200 in blocking buffer. For control purposes, alternatively a PTK2 [total] antibody (clone 4.47 mouse monoclonal, Upstate, No.: 05-537), diluted 1:400 in blocking buffer is used. This incubation is carried out at 4° C. overnight. Then the cell lawn is washed five times with 100 μL of 0.1% Tween in D-PBS for 5 min in each case and 50 μL/well of second antibody are added. In order to detect bound phospho-PTK2 [pY397] antibody a goat-anti-rabbit antibody is used which is coupled with horseradish peroxidase (Dako, No.: P0448; 1:500 dilution in blocking buffer). In order to detect bound PTK2 [total]-antibodies a rabbit-anti-mouse antibody is used, which is also coupled with horseradish peroxidase (Dako, No.: PO161; 1:1000 dilution in blocking buffer). This incubation is carried out for 1 h at RT with gentle shaking. The cell lawn is then again washed five times with 100 μL of 0.1% Tween in D-PBS for 5 min in each case. […] The EC50 values are determined from concentration-activity analyses by iterative calculation with the aid of a sigmoidal curve analysis algorithm (FIFTY, based on GraphPAD Prism Version 3.03) with a variable Hill coefficient.

[2] = target: T2, PTK2 (Homo sapiens, UniProt Q05397); experiment: PTK2 Enzyme Test (DELFIA assay, poly-Glu-Tyr substrate); type: biochemical; conditions: active PTK2 enzyme, 50 μM ATP in ATP Mix, 1 h pre-incubation
T2 construct: purchased Invitrogen PV3832
T2 sequence (Q05397 whole entry): as above
Description: This test uses active PTK2 enzyme (Invitrogen Code PV3832) and poly-Glu-Tyr (4:1, Sigma P-0275) as the kinase substrate. The kinase activity is detected by means of the phosphorylation of the substrate in a DELFIA™ assay. The phosphorylated substrate is detected with the Europium-labelled phosphotyrosine antibody PY20 (Perkin Elmer, No.: AD0038).
In order to determine concentration-activity curves with PTK2-inhibitors the compounds are serially diluted in 10% DMSO/H2O and 10 μL of each dilution are dispensed per well in a 96-well microtitre plate (clear U-shaped base plate, Greiner No. 650101) (the inhibitors are tested in duplicates) and mixed with 10 μL/well of PTK2 kinase (0.01 μg/well). PTK2 kinase is diluted accordingly beforehand with kinase dilution buffer (20 mM TRIS/HCl pH 7.5, 0.1 mM EDTA, 0.1 mM EGTA, 0.286 mM sodium orthovanadate, 10% glycerol with the addition of freshly prepared BSA (fraction V 1 mg/mL) and DTT (1 mM)). The test compound and the PTK2 kinase are pre-incubated for 1 h at RT and shaken at 500 rpm. Then 20 μL ATP Mix (30 mM TRIS/HCl pH 7.5, 0.02% Brij, 0.2 mM sodium orthovanadate, 10 mM magnesium acetate, 0.1 mM EGTA, 1× Phosphatase Inhibitor Cocktail 1 (Sigma, No.: P2850), 50 μM ATP (Sigma, No.: A3377; 15 mM stock solution)) are added. The reaction is started by the addition of 10 μL/well of poly (Glu,Tyr) substrate (25 μg/well poly (Glu,Tyr), 0.05 μg/well biotinylated poly (Glu,Tyr) dissolved in 250 mM TRIS/HCl pH 7.5, 9 mM DTT)—the final concentration of DMSO is 2%. After 1 h kinase reaction (the plates are shaken at 500 rpm), the reaction is stopped by the addition of 12 μL/well of 100 mM EDTA, pH 8. And shaken for a further 5 min at RT (500 U/min).
55 μL of the reaction mixture are transferred into a streptavidin plate (Strepta Well High Bind (transparent, 96-well) made by Roche, No.: 11989685001) and incubated for 1 h at RT (shaking at 500 rpm). Then the microtitre plate is washed three times with 200 μL/well D-PBS (Invitrogen, No.:14190). 100 μL of 1:2000 diluted DELFIA Eu-N1 Anti-Phosphotyrosine PY20 antibody (Perkin Elmer, No.: AD0038, 1:2000 diluted in DELFIA test buffer (Perkin Elmer, No.: 1244-111)) is then added and it is incubated for 1 h at RT (shaking at 500 rpm). Then the plate is washed three times with 200 μL/well DELFIA washing buffer (Perkin Elmer, No.: 1244-114), 200 μL/well strengthening solution (Perkin Elmer, No.: 1244-105) is added and the whole is incubated for 10 min at RT (shaking at 300 rpm).
The time-delayed europium fluorescence is then measured in a microtitre plate reader (Victor, Perkin Elmer). The positive control consists of wells that contain solvent (2% DMSO in test buffer) and display uninhibited kinase activity. Wells that contain test buffer instead of enzyme act as a control for the background kinase activity.
The IC50 values are determined from concentration-activity analyses by iterative calculation using a sigmoidal curve analysis algorithm (FIFTY, based on GraphPAD Prism Version 3.03) with a variable Hill coefficient.

SMILES: CCN1CCC(NC(=O)c2cc(OC)c(Nc3ncc(C(F)(F)F)c(NCc4ccc(C)cc4N(C)S(C)(=O)=O)n3)cc2F)CC1 [Example 1]
- EC50 [1]: 0.05 nM
- IC50 [2]: 2 nM

SMILES: COc1cc(CN(C)C)ccc1Nc1ncc(C(F)(F)F)c(NCc2ccc(C)cc2N(C)S(C)(=O)=O)n1 [Example 3]
- EC50 [1]: 0.11 nM
- IC50 [2]: 1 nM

SMILES: COc1cc(C(=O)NCCN(C)C)ccc1Nc1ncc(C(F)(F)F)c(NCc2ccc(C)cc2N(C)S(C)(=O)=O)n1 [Example 4]
- EC50 [1]: 0.11 nM
- IC50 [2]: 1 nM

SMILES: COc1cc(CN(C)C)ccc1Nc1ncc(C(F)(F)F)c(NCc2ccc(F)cc2N(C)S(C)(=O)=O)n1 [Example 5]
- EC50 [1]: 0.12 nM
- IC50 [2]: 0.86 nM

SMILES: COc1cc(C(=O)NC[C@@H](C)N2CCCC2)ccc1Nc1ncc(C(F)(F)F)c(NCc2ccc(C)cc2N(C)S(C)(=O)=O)n1 [Example 6]
- EC50 [1]: 0.13 nM
- IC50 [2]: 3 nM

SMILES: COc1cc(C(=O)NC2CCCN(C)C2)ccc1Nc1ncc(C(F)(F)F)c(NCc2ccc(C)cc2N(C)S(C)(=O)=O)n1 (centres unmarked) [Example 7]
- EC50 [1]: 0.14 nM
- IC50 [2]: 3 nM

SMILES: CCN1CCC(NC(=O)c2ccc(Nc3ncc(C(F)(F)F)c(NCc4ccc(C)cc4N(C)S(C)(=O)=O)n3)c(OC)c2)CC1 [Example 8]
- EC50 [1]: 0.14 nM
- IC50 [2]: 2 nM

SMILES: COc1cc(C(=O)NC2CCN(C(C)=O)CC2)ccc1Nc1ncc(C(F)(F)F)c(NCc2ccc(C)cc2N(C)S(C)(=O)=O)n1 [Example 9]
- EC50 [1]: 0.14 nM
- IC50 [2]: 6 nM

SMILES: COc1cc(C(=O)N[C@@H]2CCCN(C(C)C)C2)ccc1Nc1ncc(C(F)(F)F)c(NCc2ccc(C)cc2N(C)S(C)(=O)=O)n1 [Example 10]
- EC50 [1]: 0.14 nM
- IC50 [2]: 2 nM

SMILES: COc1cc(C(=O)NC2CC(C)(C)N(C)C(C)(C)C2)ccc1Nc1ncc(C(F)(F)F)c(NCc2ccc(C)cc2N(C)S(C)(=O)=O)n1 [Example 11]
- EC50 [1]: 0.16 nM
- IC50 [2]: 4 nM

SMILES: CCN(CC)CCNC(=O)c1ccc(Nc2ncc(C(F)(F)F)c(NCc3ccc(C)cc3N(C)S(C)(=O)=O)n2)c(OC)c1 [Example 12]
- EC50 [1]: 0.16 nM
- IC50 [2]: 2 nM

SMILES: COc1cc(C(=O)NCCn2ccnc2)ccc1Nc1ncc(C(F)(F)F)c(NCc2ccc(C)cc2N(C)S(C)(=O)=O)n1 [Example 13]
- EC50 [1]: 0.16 nM
- IC50 [2]: 2 nM

SMILES: COCCNC(=O)c1ccc(Nc2ncc(C(F)(F)F)c(NCc3ccc(C)cc3N(C)S(C)(=O)=O)n2)c(OC)c1 [Example 14]
- EC50 [1]: 0.17 nM
- IC50 [2]: 4 nM

SMILES: COc1cc(C(=O)NC2CCN(C(C)C)CC2)ccc1Nc1ncc(C(F)(F)F)c(NCc2ccc(C)cc2N(C)S(C)(=O)=O)n1 [Example 15]
- EC50 [1]: 0.18 nM
- IC50 [2]: 3 nM

SMILES: COc1cc(C(=O)NC2CCN(C3CCCCC3)CC2)ccc1Nc1ncc(C(F)(F)F)c(NCc2ccc(C)cc2N(C)S(C)(=O)=O)n1 [Example 16]
- EC50 [1]: 0.19 nM
- IC50 [2]: 4 nM

SMILES: CCN1CCC[C@@H](NC(=O)c2ccc(Nc3ncc(C(F)(F)F)c(NCc4ccc(C)cc4N(C)S(C)(=O)=O)n3)c(OC)c2)C1 [Example 17]
- EC50 [1]: 0.19 nM
- IC50 [2]: 2 nM

SMILES: COc1cc(C(=O)NC2CCN(CC(F)F)CC2)ccc1Nc1ncc(C(F)(F)F)c(NCc2ccc(C)cc2N(C)S(C)(=O)=O)n1 [Example 18]
- EC50 [1]: 0.2 nM
- IC50 [2]: 3 nM

SMILES: COc1cc(C(=O)N[C@@H]2CCN(C)C[C@H]2F)c(F)cc1Nc1ncc(C(F)(F)F)c(NCc2ccc(C)cc2N(C)S(C)(=O)=O)n1 [Example 19]
- EC50 [1]: 0.2 nM
- IC50 [2]: 3 nM

SMILES: COc1cc(C(=O)NCCN2CCCCC2)ccc1Nc1ncc(C(F)(F)F)c(NCc2ccc(C)cc2N(C)S(C)(=O)=O)n1 [Example 20]
- EC50 [1]: 0.22 nM
- IC50 [2]: 2 nM

SMILES: CCOCCNC(=O)c1ccc(Nc2ncc(C(F)(F)F)c(NCc3ccc(C)cc3N(C)S(C)(=O)=O)n2)c(OC)c1 [Example 21]
- EC50 [1]: 0.22 nM
- IC50 [2]: 5 nM

SMILES: COc1cc(C(=O)N[C@H]2CCN(C)C[C@H]2F)c(F)cc1Nc1ncc(C(F)(F)F)c(NCc2ccc(C)cc2N(C)S(C)(=O)=O)n1 [Example 22]
- EC50 [1]: 0.22 nM
- IC50 [2]: 3 nM

SMILES: COc1cc(C(=O)N[C@H]2CCN(C)C2)c(F)cc1Nc1ncc(C(F)(F)F)c(NCc2ccc(C)cc2N(C)S(C)(=O)=O)n1 [Example 23]
- EC50 [1]: 0.23 nM
- IC50 [2]: 1 nM

SMILES: COc1cc(C(=O)N[C@@H]2CCN(C)C[C@@H]2F)c(F)cc1Nc1ncc(C(F)(F)F)c(NCc2ccc(C)cc2N(C)S(C)(=O)=O)n1 [Example 24]
- EC50 [1]: 0.23 nM
- IC50 [2]: 3 nM

SMILES: CNCc1ccc(Nc2ncc(C(F)(F)F)c(NCc3ccc(C)cc3N(C)S(C)(=O)=O)n2)c(OC)c1 [Example 25]
- EC50 [1]: 0.24 nM
- IC50 [2]: 1 nM

SMILES: COc1cc(C(=O)NC2CCC3C(CCN3C)C2)ccc1Nc1ncc(C(F)(F)F)c(NCc2ccc(C)cc2N(C)S(C)(=O)=O)n1 (centres unmarked) [Example 26]
- EC50 [1]: 0.25 nM
- IC50 [2]: 3 nM

SMILES: CNC(=O)c1cc(OC)c(Nc2ncc(C(F)(F)F)c(NCc3ccc(OC)cc3N(C)S(C)(=O)=O)n2)cc1F [Example 127]
- IC50 [2]: 4 nM

SMILES: COc1ccc(CNc2nc(Nc3cc(F)c(C(=O)NC(C)(C)C)cc3OC)ncc2C(F)(F)F)c(N(C)S(C)(=O)=O)c1 [Example 128]
- IC50 [2]: 22 nM

SMILES: Cc1ccc(CNc2nc(Nc3cc(F)c(N4CCNCC4)cc3F)ncc2C(F)(F)F)c(N(C)S(C)(=O)=O)c1 [Example 129]
- IC50 [2]: 1 nM

SMILES: CNC(=O)c1ccc(Nc2ncc(C(F)(F)F)c(NCc3ccc(C)cc3N(C)S(C)(=O)=O)n2)c(C)c1 [Example 130]
- IC50 [2]: 1 nM

SMILES: COc1cc(C(=O)N[C@@H]2CCN(C)C[C@H]2F)ccc1Nc1ncc(C(F)(F)F)c(NCc2ccc(C)cc2N(C)S(C)(=O)=O)n1 [Example 131]
- IC50 [2]: 4 nM

SMILES: CCc1cc(C(=O)NC2CCOCC2)ccc1Nc1ncc(C(F)(F)F)c(NCc2ccc(C)cc2N(C)S(C)(=O)=O)n1 [Example 132]
- IC50 [2]: 4 nM
